Details: ethyl acetate and n-heptane 1:9, 25° C., 500 rpm, 24 hours
Excerpt: X-ray powder diffraction pattern in the present invention was acquired by a Panalytical Empyrean X-ray powder diffractometer. The parameters of the X-ray powder diffraction method of the present invention were as follows: • X-ray Reflection: Cu, Kα • Kα1 (Å): 1.540598; Kα2 (Å): 1.544426 • Kα2/Kα1 intensity ratio: 0.50 • Voltage: 45 (kV) • Current: 40 (mA) • Scan range: from 3.0 degree to 40.0 degree The pattern of differential scanning calorimetry (DSC) in the present invention was acquired by a TA Q200. The parameters of the differential scanning calorimetry (DSC) method of the present invention were as follow: • Heating rate: 10° C./min • Purge gas: nitrogen. The pattern of thermal gravimetric analysis (TGA) in the present invention was acquired by a TA Q5000. The parameters of the thermal gravimetric analysis (TGA) method of the present invention were as follow: • Heating rate: 10° C./min; • Purge gas: nitrogen.
The suspension was stirred at 500 rpm in a thermostat at 25° C. for 24 hours, and centrifuged to give a solid which was tested by XRPD.

Question: Which “Crystal form after stirring the suspension (form conversion by XRPD)” value does the source give for `CC[C@H]1[C@@H](O)[C@@H]2[C@H](CC[C@]3(C)[C@@H]([C@H](C)CCC(=O)O)CC[C@@H]23)[C@@]2(C)CC[C@@H](O)C[C@@H]12` [Form C, obeticholic acid] here?
Answer: transferred to crystalline Form A

Reference: US10273262B2, “Crystalline form A of obeticholic acid and preparation method thereof” (CRYSTAL PHARMATECH CO., LTD., priority 2014, dated 2019)
